Patent publication US8389680B2, “Treatment of Aspergillus infections with alpha thymosin peptides” (SciClone Pharmaceuticals, Inc., priority 2003, dated 2013)

What was measured:
murine DCs = experiment: IL-12 p70 and IL-10 production by murine DCs in response to microbial TLR ligands; assay type: cell-based
Protocol: Zymosan was from Saccharomyces cerevisiae, lipoteichoic acid (LTA) from Staphylococcus aureus, and lipopolysaccharide (LPS) from Salmonella Minnesota Re 595. The CpG oligonucleotides 1826 and 2006 were proven immunostimulatory sequences. For phagocytosis, DCs were pre-exposed to 100 ng/ml TA1 for 60 minutes and subsequently incubated at 37° C. with Aspergillus conidia for an additional 60 minutes. The percentage of internalization was calculated and photographs were taken. In assessing functional maturation and cytokine determination, purified DCs were resuspended in Iscove's medium (with no serum but with polymixin B, to avoid non-specific activation by serum components and endotoxin) and pulsed with 100 ng/ml TA1 for 24 hours either alone or together with TLR ligands or unopsonized Aspergillus conidia. The levels of TNF-alpha, IL-10, IL-12 p70, IFN-alpha and IL-8 in culture supernatants were determined by Kit ELISAs. The detection limits (pg/ml) of the assays were <3 (human) and <32 (murine) for TNF-alpha, <12 (murine) and <5 (human) for IL-10, <16 (murine) and <3 (human) for IL-12 p70 and <25 (human) IL-8. For human IFN-alpha <3 ng/ml. For enumeration of cytokine-producing cells, an ELISPOT assay was used on purified CD4^+ T cells and DCs from lungs.

Aspergillus conidia = experiment: Antifungal effector activity (conidiocidal activity) of macrophages and neutrophils; assay type: cell-based; conditions: TA1 treated mice
Protocol: […] In addition, the conidiocidal activity was assessed by determining the number of colony forming units and the percentage of colony forming units inhibition (mean±SE), referred to as conidiocidal activity.

A. fumigatus = experiment: Therapeutic efficacy of TA1 in T cell-, IFN-gamma- or IL-4-deficient mice with aspergillosis; assay type: in vivo
From the text: Female, 8- to 10-weeks old, BALB/c and C57BL6 mice were from Charles River. NOD/SCID were from The Jackson. Breeding pairs of homozygous TLR2-, TLR9- and MyD88-deficient mice, raised on C57BL6 background, and of homozygous IFN-gamma- and IL-4-deficient mice, raised on BALB/c background, were bred under specific-pathogen free conditions.
For infection with A. fumigatus, mice were intranasally injected for 3 consecutive days with a suspension of 2×10^7 conidia/20 microliter saline. For the quantification of fungal growth in the lungs, the chitin assay was used. The chitin content was expressed as micrograms of glucosamine per organ. The glucosamine content of lungs from uninfected mice was used as a negative control ranging between 0.80 and 2.25 microgram glucosamine/organ. For histological analysis, lungs were excised and immediately fixed in formalin. Sections (3 to 4 micron) of paraffin-embedded tissues were stained with the periodic acid-Schiff procedure. Thymosin alpha 1 (TA1) and the scrambled polypeptide are as purified sterile lyophilized acetylated polypeptides with endotoxin levels less than 0.03 pg/ml, by a standard limulus lysate assay. The sequences were as follows: Ac-[…]O (Thymosin alpha 1, SEQ ID NO.: 1) and Ac-[…]OH ([…]). Their lyophilized powders were reconstituted in sterile water.
The treatments were as follows; in BMT-mice, TA1, at different doses administered intraperitoneally, sthymosin alpha 1, 400 microgram/kg administered intraperitoneally or human recombinant G-CSF 250 microgram/kg administered intravenously, were given daily beginning the day of the BM infusion, in concomitance with the infection and continuing for an additional 3 days. Amphotericin B was given daily for 3 days in concomitance with the infection, at a dose of 4000 microgram/kg, administered intraperitoneally. This dose would cure IA in cyclophosphamide-treated mice. Cyclophosphamide, 150 mg/kg administered intraperitoneally, was given a day before the infection. […]

[1] = after stimulation with CpG (TLR9)
[2] = after stimulation with LTA (TLR2)
[3] = after stimulation with zymosan (TLR2)

Substance: Ac-Ser-Asp-Ala-Ala-Val-Asp-Thr-Ser-Ser-Glu-Ile-Thr-Thr-Lys-Asp-Leu-Lys-Glu-Lys-Lys-Glu-Val-Glu-Glu-Ala-Glu-Asn-O (Ac-SDAAVDTSSEITTKDLKEKKEVEEAEN-OH) [TA1, naturally occurring thymic peptide]
- production of IL-10 (murine DCs; [1]): decreases
- production of IL-12 p70 (murine DCs; [1]): significantly increased
- production of IL-10 (murine DCs; [2]): decreases
- production of IL-12 p70 (murine DCs; [2]): significantly increased
- production of IL-10 (murine DCs; [3]): decreases
- production of IL-12 p70 (murine DCs; [3]): significantly increased
- cytokine production (IL-12 p70 and IL-10) (murine DCs; in response to LPS (TLR4)): did not affect
- cytokine production (IL-12 p70 and IL-10) (murine DCs; in response to Poly(I:C)): did not affect
- conidiocidal activity of macrophages (Aspergillus conidia): higher
- conidiocidal activity of neutrophils (Aspergillus conidia): higher
- therapeutic efficacy (A. fumigatus; IL-4-deficient mice (increased Th1 cells)): improved therapeutic efficacy
- therapeutic efficacy (A. fumigatus; mice devoid of IFN-gamma-producing Th1 cells): not as great
- therapeutic efficacy (A. fumigatus; mice devoid of T cells): not as great
